These results are taken from patent US6903113B2, “Urea substituted imidazopyridines” (3M Innovative Properties Company, priority 2000, dated 2005).

For experiment [1], the system named is tumor necrosis factor (α). Briefly: Cytokine Induction in Human Cells: tumor necrosis factor (α) by ELISA or IGEN Assay. Set-up: key to Lowest Effective Concentration Tumor Necrosis Factor: A “*” indicates that no induction was seen at any of the tested concentrations. The format is cell-based. The following applies: human PBMC, 18 to 24 hours incubation, compounds generally tested at 30-0.014 μM; for minimal effective concentration: read-out: Lowest Effective Concentration Tumor Necrosis Factor. The source says: (§1) An in vitro human blood cell system is used to assess cytokine induction. Activity is based on the measurement of interferon and tumor necrosis factor (α) (IFN and TNF, respectively) secreted into culture media as described by Testerman et. al. In “Cytokine Induction by the Immunomodulators Imiquimod and S-27609”, Journal of Leukocyte Biology, 58, 365-372 (September, 1995).
(§2) Whole blood from healthy human donors is collected by venipuncture into EDTA vacutainer tubes. Peripheral blood mononuclear cells (PBMC) are separated from whole blood by density gradient centrifugation using Histopaque®-1077. Blood is diluted 1:1 with Dulbecco's Phosphate Buffered Saline (DPBS) or Hank's Balanced Salts Solution (HBSS). The PBMC layer is collected and washed twice with DPBS or HBSS and resuspended at 4×10^6 cells/mL in RPMI complete. The PBMC suspension is added to 48 well flat bottom sterile tissue culture plates (Costar, Cambridge, Mass. or Becton Dickinson Labware, Lincoln Park, N.J.) containing an equal volume of RPMI complete media containing test compound.
(§3) The compounds are solubilized in dimethyl sulfoxide (DMSO). The DMSO concentration should not exceed a final concentration of 1% for addition to the culture wells. The compounds are generally tested at concentrations ranging from 30-0.014 μM.
(§4) The solution of test compound is added at 60 μM to the first well containing RPMI complete and serial 3 fold dilutions are made in the wells. The PBMC suspension is then added to the wells in an equal volume, bringing the test compound concentrations to the desired range (30-0.014 μM). The final concentration of PBMC suspension is 2×10^6 cells/mL. The plates are covered with sterile plastic lids, mixed gently and then incubated for 18 to 24 hours at 37° C. in a 5% carbon dioxide atmosphere.
(§5) Following incubation the plates are centrifuged for 10 minutes at 1000 rpm (˜200×g) at 4° C. The cell-free culture supernatant is removed with a sterile polypropylene pipet and transferred to sterile polypropylene tubes. Samples are maintained at −30 to −70° C. until analysis. The samples are analyzed for interferon (α) by ELISA and for tumor necrosis factor (α) by ELISA or IGEN Assay
Tumor necrosis factor (α) (TNF) concentration is determined using ELISA kits available from Biosource International, Camarillo, Calif. Alternately, the TNF concentration can be determined by Origen® M-Series Immunoassay and read on an IGEN M-8 analyzer from IGEN International, Gaithersburg, Md. The immunoassay uses a human TNF capture and detection antibody pair from Biosource International, Camarillo, Calif. Results are expressed in pg/mL.
(§6) The table below lists the lowest concentration found to induce interferon and the lowest concentration found to induce tumor necrosis factor for each compound.

For the next experiment, the system named is interferon (α). Briefly: Cytokine Induction in Human Cells: interferon (α) by ELISA. The format is cell-based. Set-up: key to Lowest Effective Concentration Interferon: A “*” indicates that no induction was seen at any of the tested concentrations. The following applies: human PBMC, 18 to 24 hours incubation, compounds generally tested at 30-0.014 μM; for minimal effective concentration: read-out: Lowest Effective Concentration Interferon.
From the text: as §1, §2, §3, §4, §5
Interferon (α) concentration is determined by ELISA using a Human Multi-Species kit from PBL Biomedical Laboratories, New Brunswick, N.J. Results are expressed in pg/mL.
as §6

For the compound `CCOCc1nc2c(N)nc(C)cc2n1CCCCNC(=O)NS(=O)(=O)c1ccc(C)cc1` [Example 48], the “Lowest Effective Concentration Tumor Necrosis Factor” value in experiment [1] is “*”. For the same compound, the “Lowest Effective Concentration Interferon” value in the experiment with interferon (α) was “*”.

Take `Cc1nc(N)c2ncn(CCCCNC(=O)NC(C)C)c2c1C` [Example 16]: the “Lowest Effective Concentration Tumor Necrosis Factor” value in experiment [1] is given as “*”. In addition, in the experiment with interferon (α), the “Lowest Effective Concentration Interferon” value was “*”.

As to `CCOCc1nc2c(N)nc(C)cc2n1CCCCNC(=S)Nc1ccc(OC)cc1` [Example 52], the minimal effective concentration in experiment [1] turned out to be 3.33 µM; with interferon (α), 0.37 µM.

With `CCCCc1nc2c(N)nc(C)c(C)c2n1CCCCNC(=O)c1ccccc1` [Example 1, N-[4-(4-Amino-2-butyl-6,7-dimethyl-1H-imidazo[4,5-c]pyridin-1-yl)butyl]benzamide], the minimal effective concentration in experiment [1] worked out at 1.11 µM; in the experiment with interferon (α), 0.12 µM.

In the case of `CCOCc1nc2c(N)nc(C)c(C)c2n1CCC1CCN(C(=O)Nc2ccc(OC)cc2OC)CC1` [Example 65], the minimal effective concentration stood at 1.11 µM in experiment [1] and 0.37 µM in the experiment on interferon (α).

Consider `COc1ccc(NC(=O)NCCCCn2cnc3c(N)nc(C)c(C)c32)c(OC)c1` [Example 26], for which the minimal effective concentration (in experiment [1]; in the experiment with interferon (α)) was 30 µM throughout.

`CCOCc1nc2c(N)nc(C)cc2n1CCCCNC(=O)Nc1cccc(SC)c1` [Example 44]: the figures for the minimal effective concentration (in experiment [1]; in the experiment on interferon (α)) were 10 µM and 3.33 µM, respectively.

As to `CCOCc1nc2c(N)nc(C)c(C)c2n1CCC1CCN(C(=O)NC(C)(C)C)CC1` [Example 55], the minimal effective concentration in experiment [1] was found to be 10 µM; in the experiment on interferon (α), 3.33 µM.

Take `CCOCc1nc2c(N)nc(C)c(C)c2n1CCC1CCN(C(=O)Nc2ccc(N(C)C)cc2)CC1` [Example 63]: the minimal effective concentration turned out to be 1.11 µM in experiment [1] and 0.014 µM in the experiment with interferon (α).

For `CCOCc1nc2c(N)nc(C)c(C)c2n1CCC1CCN(C(=O)Nc2cccc(C#N)c2)CC1` [Example 60], the minimal effective concentration in experiment [1] was 1.11 µM; in the experiment with interferon (α) it was 0.37 µM.

Regarding `CCOCc1nc2c(N)nc(C)c(C)c2n1CCC1CCN(C(=O)NS(=O)(=O)c2ccccc2)CC1` [Example 69], the “Lowest Effective Concentration Tumor Necrosis Factor” value in experiment [1] is “*”. Also, in the experiment on interferon (α), the minimal effective concentration was found to be 3.33 µM.

Consider `CCOCc1nc2c(N)nc(C)cc2n1CCCCNC(=O)Nc1ccc(N(C)C)cc1` [Example 43], for which the minimal effective concentration in experiment [1] came out at 10 µM; in the experiment on interferon (α), 0.041 µM.

Regarding `Cc1nc(N)c2ncn(CCCCNC(=S)NCCc3ccccc3)c2c1C` [Example 34], the “Lowest Effective Concentration Tumor Necrosis Factor” value in experiment [1] is given as “*”. Also, in the experiment on interferon (α), the “Lowest Effective Concentration Interferon” value is “*”.

For the compound `CCOCc1nc2c(N)nc(C)c(C)c2n1CCC1CCN(C(=O)NC(C)C)CC1` [Example 54], the minimal effective concentration was 3.33 µM in experiment [1] and 1.11 µM in the experiment on interferon (α).

Regarding `Cc1nc(N)c2ncn(CCCCNC(=O)NS(=O)(=O)c3ccccc3)c2c1C` [Example 29], in experiment [1], the “Lowest Effective Concentration Tumor Necrosis Factor” value is on record as “*”. Besides, the “Lowest Effective Concentration Interferon” value in the experiment on interferon (α) is recorded as “*”.

With `CCOCc1nc2c(N)nc(C)cc2n1CCCCNC(=S)NC` [Example 49], the minimal effective concentration was 30 µM in experiment [1] and 3.33 µM in the experiment on interferon (α).

Take `CCOCc1nc2c(N)nc(C)c(C)c2n1CCC1CCN(C(=S)Nc2ccccc2)CC1` [Example 71]: the minimal effective concentration in experiment [1] came to 3.33 µM; in the experiment on interferon (α), 0.37 µM.

`Cc1nc(N)c2ncn(CCCCNC(=O)N3CCOCC3)c2c1C` [Example 27, N-[4-(4-amino-6,7-dimethyl-1H-imidazo[4,5-c]pyridin-1-yl)butyl]morpholin-4-ylcarboxamide]: the “Lowest Effective Concentration Tumor Necrosis Factor” value in experiment [1] was “*”. The “Lowest Effective Concentration Interferon” value in the experiment with interferon (α) is on record as “*”.

In the case of `Cc1nc(N)c2ncn(CCCCNC(=O)Nc3cccc(C#N)c3)c2c1C` [Example 21], the “Lowest Effective Concentration Tumor Necrosis Factor” value in experiment [1] was “*”. Further, in the experiment on interferon (α), the “Lowest Effective Concentration Interferon” value is listed as “*”.

`CCOCc1nc2c(N)nc(C)c(C)c2n1CCC1CCN(C(=O)Nc2ccccc2)CC1` [Example 57]: the minimal effective concentration in experiment [1] is 1.11 µM; in the experiment with interferon (α), 0.37 µM.

`CCOCc1nc2c(N)nc(C)c(C)c2n1CCC1CCN(C(=O)NS(=O)(=O)c2ccc(Cl)cc2)CC1` [Example 70]: the “Lowest Effective Concentration Tumor Necrosis Factor” value in experiment [1] was “*”. Further, in the experiment with interferon (α), the minimal effective concentration turned out to be 10 µM.

In the case of `CCOCc1nc2c(N)nc(C)cc2n1CCCCNC(=O)Nc1ccccc1` [Example 39], the minimal effective concentration in experiment [1] turned out to be 10 µM; with interferon (α) it was 3.33 µM.

Consider `Cc1nc(N)c2ncn(CCCCNC(=S)Nc3ccccc3)c2c1C` [Example 33], for which the minimal effective concentration (in experiment [1]; in the experiment with interferon (α)) was 3.33 µM throughout.

For `Cc1nc(N)c2ncn(CCCCNC(=O)Nc3ccccc3)c2c1C` [Example 19], the results for the minimal effective concentration (in experiment [1]; with interferon (α)) were 30 µM and 10 µM, respectively.

For `CCOCc1nc2c(N)nc(C)c(C)c2n1CCC1CCN(C(=O)NCC(=O)OCC)CC1` [Example 59], the minimal effective concentration in experiment [1] was determined as 10 µM; in the experiment with interferon (α), 1.11 µM.

As for `CCOCc1nc2c(N)nc(C)cc2n1CCCCNC(=S)NCCc1ccccc1` [Example 51], the results for the minimal effective concentration (in experiment [1]; in the experiment with interferon (α)) were 10 µM and 3.33 µM, respectively.

Regarding `CCOCc1nc2c(N)nc(C)c(C)c2n1CCC1CCN(C(=O)N[C@@H]2C[C@H]2c2ccccc2)CC1` (relative stereo) [Example 67, 4-{2-[4-amino-2-(ethoxymethyl)-6,7-dimethyl-1H-imidazo[4,5-c]pyridin-1-yl]ethyl}-N-[(1R*,2S*)-2-phenylcyclopropyl]piperidine-1-carboxamide], the minimal effective concentration in experiment [1] was 3.33 µM; in the experiment with interferon (α), 1.11 µM.

Take `CC(=O)c1cccc(NC(=O)NCCCCn2cnc3c(N)nc(C)c(C)c32)c1` [Example 23]: the “Lowest Effective Concentration Tumor Necrosis Factor” value in experiment [1] is listed as “*”. Moreover, the “Lowest Effective Concentration Interferon” value with interferon (α) is on record as “*”.

On to `CCOCc1nc2c(N)nc(C)c(C)c2n1CCC1CCN(C(=O)N2CCOCC2)CC1` [Example 66, 2-(ethoxymethyl)-6,7-dimethyl-1-{2-[1-(morpholin-4-ylcarbonyl)piperidin-4-yl]ethyl}-1H-imidazo[4,5-c]pyridin-4-amine], for which the minimal effective concentration in experiment [1] came out at 10 µM; in the experiment with interferon (α), 1.11 µM.

As to `CCOCc1nc2c(N)nc(C)cc2n1CCCCNC(=O)NS(=O)(=O)c1ccccc1` [Example 47], the “Lowest Effective Concentration Tumor Necrosis Factor” value in experiment [1] is recorded as “*”. Further, the “Lowest Effective Concentration Interferon” value in the experiment with interferon (α) is reported as “*”.

Take `CCCCc1nc2c(N)nc(C)c(C)c2n1CCCCNC(=S)Nc1ccccc1` [Example 5, N-[4-(4-Amino-2-butyl-6,7-dimethyl-1H-imidazo[4,5-c]pyridin-1-yl)butyl]-N′-phenylthiourea Hydrate]: the minimal effective concentration in experiment [1] is 0.12 µM; in the experiment on interferon (α), 0.01 µM.

For `CCOCc1nc2c(N)nc(C)cc2n1CCCCNC(=S)NC(=O)c1ccco1` [Example 53, N-{4-[4-amino-2-(ethoxymethyl)-6-methyl-1H-imidazo[4,5-c]pyridin-1-yl]butyl}-N′-(2-furoyl)thiourea], the minimal effective concentration in experiment [1] stood at 3.33 µM; in the experiment with interferon (α), 0.37 µM.

Turning to `COc1cccc(NC(=O)NCCCCn2cnc3c(N)nc(C)c(C)c32)c1` [Example 22], the “Lowest Effective Concentration Tumor Necrosis Factor” value in experiment [1] was “*”. For the same compound, in the experiment on interferon (α), the “Lowest Effective Concentration Interferon” value was “*”.

Take `CCCCc1nc2c(N)nc(C)c(C)c2n1CCCCNS(=O)(=O)c1ccc(F)cc1` [Example 3, N-[4-(4-Amino-2-butyl-6,7-dimethyl-1H-imidazo[4,5-c]pyridin-1-yl)butyl]-4-fluorobenzenesulfonamide Hydrate]: the minimal effective concentration in experiment [1] was determined as 0.37 µM; in the experiment with interferon (α), 0.01 µM.
